Data as given in patent publication US20190119200A1, “TERTIARY AMIDES AND METHOD OF USE” (AbbVie Inc., priority 2016, published 2019).

Experiments:
Assay type in all cases: cell-based
LPAR1 [1] = target: T1, LPAR1 (Homo sapiens, UniProt Q92633); assay: IP-One HTRF Assay; conditions: U2OS cells stably expressing LPAR1, LPA stimulation, IP-One Tb HTRF kit; for Emax: read-out: Maximum Inhibition
T1 construct: host or cells: U2OS
Experimental: U2OS cells stably expressing LPAR1 (Life Technologies #K1519A) were plated at 20000 cells/well in growth medium (McCoy's 5A(Life Technologies #16600-082)) with 10% dFBS (Life Technologies #26400-036), 0.1 mM non-essential amino acids, 25 mM HEPES, 1 mM sodium pyruvate, 1% penicillin/streptomycin, 50 μg/mL hygromycin, and 100 μg/mL Geneticin® in tissue culture treated 384-well white plates (Greiner #781080) in humidified 5% CO2 at 37° C. overnight. On the day of the assay, culture medium was replaced with 30 μL/well of McCoy's 5A with 0.1% BSA. Cells were incubated in humidified 5% CO2 at 37° C. for 3 more hours. Compounds were 3-fold serial diluted from 2 mM for 11-points using dimethyl sulfoxide. 1 μL of compound in DMSO was diluted in 50 μL stimulation buffer from an IP-One Tb HTRF kit (Cisbio #62IPAPEB) immediately before assay. 15 μL/well of 1.33× compound in stimulation buffer was added to cells after removal of culture medium. After 20 minutes of incubation at 37° C., 5 μL/well of 8 μM LPA diluted in stimulation buffer with 0.1% fatty acid free BSA was added to cells. […]. To EC100 wells were added 4×20 μM LPA. To the cells were added 5 μL/well IP1-d2 conjugate and 5 μLwell IP1-K antibody after 2 hours of incubation at 37° C. Cells were incubated at room temperature for 1 hour (protected from light). The plate was then read at 665 nm and 615 nm using an EnVision® Multilabel Plate Reader. IC50 values were calculated from curve fits of the ratio data using a four-parameter logistic Hill equation (Assay Explorer 3.3 Client).

[2] = test system: LPA-induced MCP-1 in NRK-49F cells; assay: LPA-induced MCP-1 AlphaLISA assay; conditions: Rattus norvegicus, final LPA 10 μM, 7 hours; for Emax: read-out: Maximum Inhibition
Summary of the method: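 NRK-49F rat fibroblasts, serum-starved overnight, pretreated with compound for 30 min at 37 °C (1% DMSO final), then stimulated with 10 μM LPA final. MCP-1 in the supernatant was measured by mouse/rat CCL2 AlphaLISA. IC50 values came from four-parameter logistic fits of the ratio data.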

LPAR1 [3] = target: T1, LPAR1; assay: LPAR1 FLIPR Assay; conditions: U2OS cells stably expressing LPAR1, LPA (EC80), Calcium 6 FLIPR dye; for Emax: read-out: Maximum Inhibition
Summary of the method: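 U2OS cells stably expressing LPAR1 were loaded with Calcium 6 dye for 2 h at 37° C, preincubated 3 min with compound (11-point 3-fold series), then stimulated with LPA at EC80. Fluorescence at 515-575 nm was recorded by FLIPR; IC50 came from four-parameter logistic fits of ratio data.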

T1 sequence (Q92633 whole entry): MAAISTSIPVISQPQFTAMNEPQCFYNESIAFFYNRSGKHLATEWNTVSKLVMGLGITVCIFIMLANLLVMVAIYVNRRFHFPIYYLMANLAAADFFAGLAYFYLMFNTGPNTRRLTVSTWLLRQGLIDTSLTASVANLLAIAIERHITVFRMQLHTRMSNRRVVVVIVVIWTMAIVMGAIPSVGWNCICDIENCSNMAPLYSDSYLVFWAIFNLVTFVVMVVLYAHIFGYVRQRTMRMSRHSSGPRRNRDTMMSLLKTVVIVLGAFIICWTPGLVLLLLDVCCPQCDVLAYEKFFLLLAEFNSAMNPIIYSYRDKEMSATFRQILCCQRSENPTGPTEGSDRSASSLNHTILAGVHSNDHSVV

SMILES	IC50 (LPAR1 [1])	Emax (LPAR1 [1])	IC50 [2]	Emax [2]	IC50 (LPAR1 [3])	Emax (LPAR1 [3])
COc1cc(C(=O)N(CCCc2ccccc2)CCCC(C)C(=O)O)cc(OC)c1C (centres unmarked) [Example 54, 5-[(3,5-dimethoxy-4-methylbenzoyl)(3-phenylpropyl)amino]-2-methylpentanoic Acid]	0.022 µM	91%	0.055 µM	96%	0.015 µM	100%
COc1cc(C(=O)N(CCCc2ccccc2)CC(=O)NC2(C(=O)O)CCCCC2)cc(OC)c1C [Example 2, 1-{[N-(3,5-dimethoxy-4-methylbenzoyl)-N-(3-phenylpropyl)glycyl]amino}cyclohexane-1-carboxylic Acid]	4.83 µM	84%	–	–	0.114 µM	72%
COc1cc(C(=O)N(CCCC(=O)O)CCCc2ccccc2)cc(OC)c1C [Example 69, 4-[(3,5-dimethoxy-4-methylbenzoyl)(3-phenylpropyl)amino]butanoic Acid]	3.82 µM	85%	1.66 µM	62%	> 30 µM	38%
CCOP(=O)(O)CCCCN(CCCc1ccccc1)C(=O)c1cc(OC)cc(OC)c1 [Example 76, ethyl hydrogen {4-[(3,5-dimethoxybenzoyl)(3-phenylpropyl)amino]butyl}phosphonate]	5.83 µM	65%	> 10 µM	36%	0.048 µM	76%
CNS(=O)(=O)NC(=O)CCN(CCCc1ccccc1)C(=O)c1cc(OC)c(C)c(OC)c1 [Example 68, 3,5-dimethoxy-4-methyl-N-{3-[(methylsulfamoyl)amino]-3-oxopropyl}-N-(3-phenylpropyl)benzamide]	13.3 µM	67%	–	–	0.902 µM	52%
COc1cc(C(=O)N(CCCc2ccccc2)CCOCCC(=O)O)cc(OC)c1C [Example 56, 3-{2-[(3,5-dimethoxy-4-methylbenzoyl)(3-phenylpropyl)amino]ethoxy}propanoic Acid]	0.424 µM	100%	1.24 µM	79%	0.021 µM	95%
COc1cc(OC)cc(C(=O)N(CCCCP(=O)(O)O)CCCc2ccccc2)c1 [Example 75, {4-[(3,5-dimethoxybenzoyl)(3-phenylpropyl)amino]butyl}phosphonic Acid]	1.07 µM	77%	3.25 µM	65%	0.02 µM	72%
COc1cc(C(=O)N(CCCCC(=O)NS(=O)(=O)c2cccnc2)CCCc2ccccc2)cc(OC)c1C [Example 142, 3,5-dimethoxy-4-methyl-N-{5-oxo-5-[(pyridine-3-sulfonyl)amino]pentyl}-N-(3-phenylpropyl)benzamide]	–	–	0.831 µM	90%	0.076 µM	88%
COc1cc(OC)cc(C(=O)N(CCCCC(=O)O)CCCc2ccc(C)o2)c1 [Example 133, 5-{(3,5-dimethoxybenzoyl)[3-(5-methylfuran-2-yl)propyl]amino}pentanoic Acid]	–	–	3.19 µM	68%	0.046 µM	78%
COc1cc(C(=O)N(CCCCC(=O)O)CCC(C)c2ccccc2)cc(OC)c1C (centres unmarked) [Example 182, 5-[(3,5-dimethoxy-4-methylbenzoyl)(3-phenylbutyl)amino]pentanoic Acid]	–	–	0.994 µM	85%	0.047 µM	91%
COc1cc(C(=O)N(CCCCC(=O)O)CCCc2cc(F)cc(F)c2)cc(OC)c1C [Example 126, 5-{[3-(3,5-difluorophenyl)propyl](3,5-dimethoxy-4-methylbenzoyl)amino}pentanoic Acid]	–	–	3.89 µM	75%	0.119 µM	74%
COc1cc(C(=O)N(CCCc2cc(Cl)cc(Cl)c2)CCOCC(=O)O)cc(OC)c1C [Example 127, (2-{[3-(3,5-dichlorophenyl)propyl](3,5-dimethoxy-4-methylbenzoyl)amino}ethoxy)acetic Acid]	–	–	> 10 µM	14%	> 10 µM	7%
COc1ccc(C2(C(=O)N(CCCCC(=O)O)CCCc3ccccc3)CC(=O)C2)cc1 [Example 152, 5-{[1-(4-methoxyphenyl)-3-oxocyclobutane-1-carbonyl](3-phenylpropyl)amino}pentanoic Acid]	–	–	6.17 µM	64%	0.085 µM	88%
Cc1ncc(Cl)c(C(=O)N(CCCCC(=O)O)CCCc2ccccc2)n1 [Example 167, 5-[(5-chloro-2-methylpyrimidine-4-carbonyl)(3-phenylpropyl)amino]pentanoic Acid]	–	–	> 10 µM	25%	0.635 µM	58%
COc1cc(OC)cc(C(=O)N(CCCCC(=O)O)CCCc2ccccc2Cl)c1 [Example 135, 5-{[3-(2-chlorophenyl)propyl](3,5-dimethoxybenzoyl)amino}pentanoic Acid]	–	–	> 10 µM	25%	> 10 µM	32%
CC(=O)Nc1cc(C(=O)N(CCCCC(=O)O)CCCc2ccccc2)ccn1 [Example 171, 5-[(2-acetamidopyridine-4-carbonyl)(3-phenylpropyl)amino]pentanoic Acid]	–	–	> 2.18 µM	30%	0.933 µM	70%
COc1cc(C(=O)N(CCCc2ccccc2)CCC(=O)O)cc(OC)c1C [Example 67, N-(3,5-dimethoxy-4-methylbenzoyl)-N-(3-phenylpropyl)-beta-alanine]	–	–	3.71 µM	57%	> 30 µM	46%
COc1cc(OC)cc(C(=O)N(CCCCC(=O)O)CCCc2cc(F)cc(F)c2)c1 [Example 136, 5-{[3-(3,5-difluorophenyl)propyl](3,5-dimethoxybenzoyl)amino}pentanoic Acid]	–	–	> 10 µM	47%	> 10 µM	15%
COc1ccc(C2(C(=O)N(CCCCC(=O)O)CCCc3ccccc3)CC2)c(F)c1 [Example 103, 5-{[1-(2-fluoro-4-methoxyphenyl)cyclopropane-1-carbonyl](3-phenylpropyl)amino}pentanoic Acid]	–	–	5.46 µM	62%	0.068 µM	75%
COc1cc(C(=O)N(CCCc2ccccc2)CCCC(O)C(=O)O)cc(OC)c1C1CC1 (centres unmarked) [Example 165, 5-[(4-cyclopropyl-3,5-dimethoxybenzoyl)(3-phenylpropyl)amino]-2-hydroxypentanoic Acid]	–	–	2.73 µM	70%	0.045 µM	83%
COc1cc(C(=O)N(CCCc2ccccc2)C[C@H](O)CCC(=O)O)cc(OC)c1C [Example 120, (4R)-5-[(3,5-dimethoxy-4-methylbenzoyl)(3-phenylpropyl)amino]-4-hydroxypentanoic Acid]	–	–	5.24 µM	65%	0.039 µM	81%
COc1cc(C(=O)N(CCCCC(=O)NS(=O)(=O)C2CC2)CCCc2ccccc2)cc(OC)c1C [Example 119, N-{5-[(cyclopropanesulfonyl)amino]-5-oxopentyl}-3,5-dimethoxy-4-methyl-N-(3-phenylpropyl)benzamide]	–	–	1.17 µM	80%	0.097 µM	92%
